target: T1, CGRP receptor (SK-N-MC cell membranes) (Homo sapiens, UniProt O60894+Q16602); test: CGRP Binding Assay ([125I]-CGRP radioligand binding, SK-N-MC homogenate); settings: displacement of [125I]-CGRP, SK-N-MC homogenate; read-out: CGRP binding IC50
T1 construct: endogenous in cells; host or cells: SK-N-MC cells (membrane homogenate)
Method: Tissue Culture. SK-N-MC cells were grown at 37° C. in 5% CO2 as a monolayer in medium consisting of MEM with Earle's salts and L-glutamine (Gibco) supplemented with 10% fetal bovine serum (Gibco).
Cell Pellets. […] The cells were transferred from plates to polypropylene tubes (16×100 mm) and homogenized using a polytron. Homogenates were centrifuged at 32,000×g for 30 min. The pellets were resuspended in cold hypotonic lysis buffer with 0.1% mammalian protease inhibitor cocktail (Sigma) and assayed for protein concentration. The SK-N-MC homogenate was then aliquoted and stored at −80° C. until needed.
Radioligand Binding Assay. The compounds of invention were solubilized and carried through serial dilutions using 100% DMSO. Aliquots from the compound serial dilutions were further diluted 25 fold into assay buffer (50 mM Tris-Cl pH 7.5, 5 mM MgCl2, 0.005% Triton X-100) and transferred (volume 50 μl) into 96 well assay plates. […] SK-N-MC pellets were thawed, diluted in assay buffer with fresh 0.1% mammalian protease inhibitor cocktail (Sigma), and homogenized again. SK-N-MC homogenate (5 μg/well) was added in a volume of 100 μl. The assay plates were then incubated at room temperature for 2 h. Assays were stopped by addition of excess cold wash buffer (20 mM Tris-Cl pH 7.5, 0.1% BSA) immediately followed by filtration over glass fiber filters (Whatman GF/B) previously soaked in 0.5% PEI. Non-specific binding was defined with 1 μM beta-CGRP. Protein bound radioactivity was determined using a gamma or scintillation counter.

T1 sequence (Q16602 23-461): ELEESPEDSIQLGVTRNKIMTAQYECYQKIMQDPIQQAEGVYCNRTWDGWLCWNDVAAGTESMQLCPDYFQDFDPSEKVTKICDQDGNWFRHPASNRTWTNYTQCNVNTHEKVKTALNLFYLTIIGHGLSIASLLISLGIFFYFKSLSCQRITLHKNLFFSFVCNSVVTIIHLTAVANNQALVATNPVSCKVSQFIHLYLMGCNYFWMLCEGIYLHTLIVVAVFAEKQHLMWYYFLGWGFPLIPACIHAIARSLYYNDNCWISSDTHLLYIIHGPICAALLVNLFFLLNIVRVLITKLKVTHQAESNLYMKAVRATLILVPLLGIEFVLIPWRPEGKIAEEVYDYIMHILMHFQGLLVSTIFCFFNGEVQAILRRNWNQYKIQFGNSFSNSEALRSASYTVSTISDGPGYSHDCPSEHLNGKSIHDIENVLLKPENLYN
T1 sequence (O60894 27-148): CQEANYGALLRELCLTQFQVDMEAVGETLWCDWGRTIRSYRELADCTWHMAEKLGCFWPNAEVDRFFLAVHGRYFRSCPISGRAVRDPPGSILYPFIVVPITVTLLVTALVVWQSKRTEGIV

| Structure (SMILES) | IC50 [nM] |
| --- | --- |
| O=C1Cc2cc(C[C@@H](NC(=O)N3CCC(N4Cc5ccccc5NC4=O)CC3)C(=O)N3CCC(N4CCCCC4)CC3)ccc2N1 [Example 50, (R)-4-(2-Oxo-1,4-dihydro-2H-quinazolin-3-yl)-piperidine-1-carboxylic acid[2-[1,4′]bipiperidinyl-1′-yl-2-oxo-1-(2-oxo-2,3-dihydro-1H-indol-5-ylmethyl)-ethyl]-amide] | < 10 |
| CC(=O)N[C@@H](CC(=O)N1CCC(N2Cc3ccccc3NC2=O)CC1)C(=O)N1CCC(N2CCCCC2)CC1 [Example 120] | 100 to 1000 |
| O=C(C[C@H](NC1CCC(O)CC1)C(=O)N1CCC(N2CCCCC2)CC1)N1CCC(N2Cc3ccccc3NC2=O)CC1 (some centres unmarked) [Example 97, (L)-1-[1,4′]Bipiperidinyl-1′-yl-2-(4-hydroxy-cyclohexylamino)-4-[4-(2-oxo-1,4-dihydro-2H-quinazolin-3-yl)-piperidin-1-yl]-butane-1,4-dione] | > 1000 |
| Cc1cc(CC(NC(=O)N2CCC3(CC2)OC(=O)Nc2ccccc23)C(=O)NCc2ccncc2)cc2cn[nH]c12 (racemic) [Example 30, (±)-1′,2′-Dihydro-2′-oxospiro-[4H-3′,1-benzoxazine-4,4′-piperidine-1-carboxylic acid {2-(7-methyl-1H-indazol-5-yl)-1-[(pyridin-4-ylmethyl)-carbamoyl]-ethyl}-amide] | 10 to 100 |
| Cc1cc(CC(NC(=O)N2CCC(N3Cc4ccccc4NC3=O)CC2)C(=O)OC2CCC(c3ccccc3)CC2)cc2cn[nH]c12 (centres unmarked) [Example 41d, 3-(7-Methyl-1H-indazol-5-yl)-2-{[4-(2-oxo-1,4-dihydro-2H-quinazolin-3-yl)-piperidine-1-carbonyl]-amino}-propionic acid 4-phenyl-cyclohexyl ester] | 10 to 100 |
| O=C(Nc1cccc(Cl)c1)N[C@@H](CC(=O)N1CCC(N2Cc3ccccc3NC2=O)CC1)C(=O)N1CCC(N2CCCCC2)CC1 [Example 178] | 10 to 100 |
| O=C(NC(Cc1ccc2[nH]ncc2c1)C(=O)N1CCN(Cc2ccco2)CC1)N1CCC(N2Cc3ccccc3NC2=O)CC1 (centres unmarked) [Example 40e] | > 1000 |
| COc1cc(C(=O)N[C@@H](CC(=O)N2CCC(N3Cc4ccccc4NC3=O)CC2)C(=O)N2CCC(N3CCCCC3)CC2)cc(OC)c1OC [Example 128] | 100 to 1000 |
| Cc1ccc(F)cc1NC(=O)N[C@@H](CC(=O)N1CCC(N2Cc3ccccc3NC2=O)CC1)C(=O)N1CCC(N2CCCCC2)CC1 [Example 195] | 100 to 1000 |
| COc1ncc(CC(NC(=O)N2CCC(N3Cc4ccccc4NC3=O)CC2)C(=O)N2CCC(N3CCCCC3)CC2)cn1 (racemic) [Example 58, (±)-4-(2-Oxo-1,4-dihydro-2H-quinazolin-3-yl)-piperidine-1-carboxylic acid[2-[1,4′]bipiperidinyl-1′-yl-1-(2-methoxy-pyrimidin-5-ylmethyl)-2-oxo-ethyl]-amide] | > 1000 |
| O=C(NC(CN1CCC(O)CC1)C(=O)N1CCC(N2CCCCC2)CC1)N1CCC(N2Cc3ccccc3NC2=O)CC1 (racemic) [Example 53, (±)-4-(2-Oxo-1,4-dihydro-2H-quinazolin-3-yl)-piperidine-1-carboxylic acid[2-[1,4′]bipiperidinyl-1′-yl-1-(4-hydroxy-piperidin-1-ylmethyl)-2-oxo-ethyl]-amide] | > 1000 |
| O=C(Nc1ccc(Cl)cc1)N[C@@H](CC(=O)N1CCC(N2Cc3ccccc3NC2=O)CC1)C(=O)N1CCC(N2CCCCC2)CC1 [Example 140] | 10 to 100 |
| O=C(N[C@@H](CC(=O)N1CCC(N2Cc3ccccc3NC2=O)CC1)C(=O)N1CCC(N2CCCCC2)CC1)c1ccc([N+](=O)[O-])o1 [Example 124] | 100 to 1000 |
| O=C(Nc1ccc(F)c(Cl)c1)N[C@@H](CC(=O)N1CCC(N2Cc3ccccc3NC2=O)CC1)C(=O)N1CCC(N2CCCCC2)CC1 [Example 193] | 10 to 100 |

Reference: patent publication US7842808B2, “Anti-migraine spirocycles” (Bristol-Myers Squibb Company, priority 2002, dated 2010)
